Data published in US20240425479A1, “HALO-SUBSTITUTED AMINO AZA-HETEROARYL COMPOUNDS AS INHIBITORS OF THE HAEMATOPOIETIC PROGENITOR KINASE 1 (HPK1)” (priority 2021, published 2024).

Molecular target: T1, Recombinant (1-346) HPK1 (h) (Homo sapiens, UniProt Q92918)
T1 construct: Recombinant (1-346) HPK1 (h) is incubated with 8 mM MOPS pH 7.0
T1 sequence (Q92918 1-346): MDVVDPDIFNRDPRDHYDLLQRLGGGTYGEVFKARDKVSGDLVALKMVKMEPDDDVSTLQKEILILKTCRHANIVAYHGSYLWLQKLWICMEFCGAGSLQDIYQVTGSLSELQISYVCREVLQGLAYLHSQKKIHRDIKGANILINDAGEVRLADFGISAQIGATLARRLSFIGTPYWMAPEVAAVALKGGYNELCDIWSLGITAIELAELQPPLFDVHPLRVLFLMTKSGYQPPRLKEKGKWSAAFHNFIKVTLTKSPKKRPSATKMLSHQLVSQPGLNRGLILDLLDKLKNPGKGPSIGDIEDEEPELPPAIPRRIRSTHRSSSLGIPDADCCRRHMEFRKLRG
Experiment: HPK1 human STE kinase enzymatic radiometric assay
Assay type: biochemical
Settings: read-out: HPK1 IC50 nM Range
Outline: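 Recombinant HPK1 (1-346) incubated 40 min at RT with 0.33 mg/mL myelin basic protein and [gamma-33P]-ATP in 8 mM MOPS pH 7.0, 0.2 mM EDTA, 10 mM Mg acetate; reaction started with Mg/ATP. Stopped with 0.5% phosphoric acid, spotted on P30 filtermat, washed, scintillation counted. Compounds tested as 9-point 3-fold dilutions.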

Row | Compound | IC50 [nM]
1 | CN(C)Cc1cccc(-c2nc(-c3ccc4c(c3)CCNC4=O)c(N)nc2F)c1 [Example I-277, 6-(3-amino-6-(3-((dimethylamino)methyl)phenyl)-5-fluoropyrazin-2-yl)-3,4-dihydroisoquinolin-1(2H)-one] | 11 to 100
2 | CN(C)Cc1cccc(-c2nc(-c3cc4c(cc3F)C(=O)NCC4)c(N)nc2F)c1 [Example I-278, 6-(3-amino-6-(3-((dimethylamino)methyl)phenyl)-5-fluoropyrazin-2-yl)-7-fluoro-3,4-dihydroisoquinolin-1(2H)-one] | 11 to 100
3 | CN(C)Cc1cccc(-c2nc(-c3cc(F)c4c(c3)CCNC4=O)c(N)nc2F)c1 [Example I-279, 6-(3-amino-6-(3-((dimethylamino)methyl)phenyl)-5-fluoropyrazin-2-yl)-8-fluoro-3,4-dihydroisoquinolin-1(2H)-one] | 11 to 100
4 | Cc1c[nH]c(=O)c2ccc(-c3nc(-c4cccc(CN(C)C)c4)c(F)nc3N)cc12 [Example I-280, 6-(3-amino-6-(3-((dimethylamino)methyl)phenyl)-5-fluoropyrazin-2-yl)-4-methylisoquinolin-1(2H)-one] | 11 to 100
5 | CN(C)Cc1cccc(-c2nc(-c3ccc4c(=O)[nH]cc(F)c4c3)c(N)nc2F)c1 [Example I-281, 6-(3-amino-6-(3-((dimethylamino)methyl)phenyl)-5-fluoropyrazin-2-yl)-4-fluoroisoquinolin-1(2H)-one] | 11 to 100
6 | CCN(C)Cc1cc(-c2nc(-c3ccc4c(=O)[nH]cc(F)c4c3)c(N)nc2F)ccc1C1=CCOCC1 [Example I-282, 6-(3-amino-6-(4-(3,6-dihydro-2H-pyran-4-yl)-3-((ethyl(methyl)amino)methyl)phenyl)-5-fluoropyrazin-2-yl)-4-fluoroisoquinolin-1(2H)-one] | 11 to 100
7 | CN(C)[C@@H]1COc2ccc(-c3nc(-c4ccc5c(=O)[nH]ccc5c4)c(N)nc3F)cc21 [Example I-283, (S)-6-(3-amino-6-(3-(dimethylamino)-2,3-dihydrobenzofuran-5-yl)-5-fluoropyrazin-2-yl)isoquinolin-1(2H)-one] | 11 to 100
8 | Cc1c[nH]c(=O)c2ccc(-c3nc(-c4ccc5c(c4)[C@H](N(C)C)CO5)c(F)nc3N)cc12 [Example I-284, (S)-6-(3-amino-6-(3-(dimethylamino)-2,3-dihydrobenzofuran-5-yl)-5-fluoropyrazin-2-yl)-4-methylisoquinolin-1(2H)-one] | 11 to 100
9 | Cc1c[nH]c(=O)c2ccc(-c3nc(-c4ccc5c(c4)[C@H](N(C)C)CCO5)c(F)nc3N)cc12 [Example I-285, (R)-6-(3-amino-6-(4-(dimethylamino)chroman-6-yl)-5-fluoropyrazin-2-yl)-4-methylisoquinolin-1(2H)-one] | 0.1 to 10
10 | CN(C)[C@@H]1CCOc2ccc(-c3nc(-c4ccc5c(=O)[nH]ccc5c4)c(N)nc3F)cc21 [Example I-286, (R)-6-(3-amino-6-(4-(dimethylamino)chroman-6-yl)-5-fluoropyrazin-2-yl)isoquinolin-1(2H)-one] | 11 to 100
11 | CN(C)[C@@H]1CCOc2ccc(-c3nc(-c4ccc5c(c4)CCNC5=O)c(N)nc3F)cc21 [Example I-287, (R)-6-(3-amino-6-(4-(dimethylamino)chroman-6-yl)-5-fluoropyrazin-2-yl)-3,4-dihydroisoquinolin-1(2H)-one] | 0.1 to 10
12 | CN(C)[C@@H]1CCOc2ccc(-c3nc(-c4cc5c(cc4F)C(=O)NCC5)c(N)nc3F)cc21 [Example I-288, (R)-6-(3-amino-6-(4-(dimethylamino)chroman-6-yl)-5-fluoropyrazin-2-yl)-7-fluoro-3,4-dihydroisoquinolin-1(2H)-one] | 11 to 100

Next, values leading:

Row | IC50 [nM] | Compound
13 | 11 to 100 | CN(C)[C@@H]1CCOc2ccc(-c3nc(-c4cc(F)c5c(c4)CCNC5=O)c(N)nc3F)cc21 [Example I-289, (R)-6-(3-amino-6-(4-(dimethylamino)chroman-6-yl)-5-fluoropyrazin-2-yl)-8-fluoro-3,4-dihydroisoquinolin-1(2H)-one]
14 | 0.1 to 10 | COc1ccc(-c2nc(-c3ccc4c(c3)CCNC4=O)c(N)nc2F)cc1C(C)N(C)C (stereo not drawn) [Example I-290, 6-(3-amino-6-(3-(1-(dimethylamino)ethyl)-4-methoxyphenyl)-5-fluoropyrazin-2-yl)-3,4-dihydroisoquinolin-1(2H)-one]
15 | 0.1 to 10 | COc1ccc(-c2nc(-c3ccc4c(=O)[nH]cc(F)c4c3)c(N)nc2F)cc1C(C)N(C)C (stereo not drawn) [Example I-291, 6-(3-amino-6-(3-(1-(dimethylamino)ethyl)-4-methoxyphenyl)-5-fluoropyrazin-2-yl)-4-fluoroisoquinolin-1(2H)-one]
16 | 11 to 100 | COc1ccc(-c2nc(-c3ccc4c(c3)CCNC4=O)c(N)nc2F)cc1C#N [Example I-292, 5-(5-amino-3-fluoro-6-(1-oxo-1,2,3,4-tetrahydroisoquinolin-6-yl)pyrazin-2-yl)-2-methoxybenzonitrile]
17 | 0.1 to 10 | Cc1cc(-c2nc(-c3ccc4c(c3)CCNC4=O)c(N)nc2F)cc2c1CCN(C)C2 [Example I-294, 6-(3-amino-6-(2,5-dimethyl-1,2,3,4-tetrahydroisoquinolin-7-yl)-5-fluoropyrazin-2-yl)-3,4-dihydroisoquinolin-1(2H)-one]
18 | 11 to 100 | Cc1cc(-c2nc(-c3ccc4c(=O)[nH]cc(C)c4c3)c(N)nc2F)cc2c1CCN(C)C2 [Example I-295, 6-(3-amino-6-(2,5-dimethyl-1,2,3,4-tetrahydroisoquinolin-7-yl)-5-fluoropyrazin-2-yl)-4-methylisoquinolin-1(2H)-one]
19 | 0.1 to 10 | Cc1cc(-c2nc(-c3ccc4c(=O)[nH]cc(F)c4c3)c(N)nc2F)cc2c1CCN(C)C2 [Example I-296, 6-(3-amino-6-(2,5-dimethyl-1,2,3,4-tetrahydroisoquinolin-7-yl)-5-fluoropyrazin-2-yl)-4-fluoroisoquinolin-1(2H)-one]
20 | 11 to 100 | CCN(C)Cc1cc(-c2nc(-c3ccc4c(c3)CCNC4=O)c(N)nc2F)cc(C)c1OC [Example I-297, 6-(3-amino-6-(3-((ethyl(methyl)amino)methyl)-4-methoxy-5-methylphenyl)-5-fluoropyrazin-2-yl)-3,4-dihydroisoquinolin-1(2H)-one]
21 | 11 to 100 | CCN(C)Cc1cc(-c2nc(-c3ccc4c(=O)[nH]cc(F)c4c3)c(N)nc2F)cc(C)c1OC [Example I-298, 6-(3-amino-6-(3-((ethyl(methyl)amino)methyl)-4-methoxy-5-methylphenyl)-5-fluoropyrazin-2-yl)-4-fluoroisoquinolin-1(2H)-one]
22 | 11 to 100 | CCN(C)Cc1cc(-c2nc(-c3ccc4c(=O)[nH]cc(C)c4c3)c(N)nc2F)cc(C)c1OC [Example I-299, 6-(3-amino-6-(3-((ethyl(methyl)amino)methyl)-4-methoxy-5-methylphenyl)-5-fluoropyrazin-2-yl)-4-methylisoquinolin-1(2H)-one]
23 | 11 to 100 | CCN(C)Cc1cc(-c2nc(-c3ccc4c(=O)[nH]cc(F)c4c3)c(N)nc2F)ccc1OC [Example I-300, 6-(3-amino-6-(3-((ethyl(methyl)amino)methyl)-4-methoxyphenyl)-5-fluoropyrazin-2-yl)-4-fluoroisoquinolin-1(2H)-one]
24 | 11 to 100 | CCN(C)Cc1cc(-c2nc(-c3ccc4c(=O)[nH]cc(C)c4c3)c(N)nc2F)ccc1OC [Example I-301, 6-(3-amino-6-(3-((ethyl(methyl)amino)methyl)-4-methoxyphenyl)-5-fluoropyrazin-2-yl)-4-methylisoquinolin-1(2H)-one]
